Experimental data from patent publication US11213555B2, “Intravenous injection for enhancing immune function” (priority 2016, dated 2022).
Read-outs that look alike come from different tables or passages of the source. Ends that are not written are not given here.

Assays:
[1] = system: monocytes-macrophages; test: Carbon clearance assay, phagocytosis of monocytes-macrophages in normal mice; details: normal Kunming mice; 0.2 mg/kg via tail vein, once a day for five days; 2 h after last dose
[2] = Spleen index (immune organ index) in normal mice; details: 0.2 mg/kg via tail vein, once a day for five days, 2 h after last dose
[3] = system: Ehrlich ascites carcinoma; test: Body weight gain and spleen index of Ehrlich ascites carcinoma mice; details: EAC ICR mice; 0.2 mg/kg via tail vein, one day before inoculation then 7 consecutive days
[4] = system: monocytes-macrophages; details: immunosuppressed mice (dexamethasone 40 mg/kg i.p., five days); 0.2 mg/kg via tail vein, once a day for five days
[5] = Spleen index (immune organ index) in immunosuppressed mouse models; details: immunosuppressed mice (dexamethasone 40 mg/kg i.p., five days); 0.2 mg/kg via tail vein, once a day for five days

RKDVY [Thymopentin, thymopentin]
Carbon clearance index K × 10^3 [1]: 4.874 ± 0.582 ^
Spleen index (%) [2]: 0.642 ± 0.091%
Body weight gain [3]: 6.190 ± 2.087 g
Spleen index (%) [3]: 0.221 ± 0.036%
Carbon clearance index K × 10^3 [4]: 7.773 ± 1.018^ΔΔ
Spleen index (%) [5]: 0.546 ± 0.097^ΔΔ %
